Results published in ChEMBL document CHEMBL1649134, “Occurrence of efflux mechanism and cephalosporinase variant in a population of Enterobacter aerogenes and Klebsiella pneumoniae isolates producing extended-spectrum beta-lactamases” (2009).

Legend:
Assay type in all cases: functional
[1] = system: Klebsiella aerogenes; experiment: Antimicrobial activity against multidrug resistant Enterobacter aerogenes isolate 16 by broth dilution method in presence of 26.3 mg/L efflux pump inhibitor phenylalanine-arginine-beta-naphthylamide
[2] = system: Klebsiella aerogenes; experiment: Antimicrobial activity against multidrug resistant Enterobacter aerogenes isolate 19 by broth dilution method in presence of 26.3 mg/L efflux pump inhibitor phenylalanine-arginine-beta-naphthylamide
[3] = system: Klebsiella aerogenes; experiment: Antimicrobial activity against multidrug resistant Enterobacter aerogenes isolate 23 by broth dilution method in presence of 26.3 mg/L efflux pump inhibitor phenylalanine-arginine-beta-naphthylamide
[4] = system: Klebsiella pneumoniae; experiment: Antimicrobial activity against multidrug resistant Klebsiella pneumoniae isolate 1 by broth dilution method in presence of 26.3 mg/L efflux pump inhibitor phenylalanine-arginine-beta-naphthylamide
[5] = system: Klebsiella pneumoniae; experiment: Antimicrobial activity against multidrug resistant Klebsiella pneumoniae isolate 3 by broth dilution method in presence of 26.3 mg/L efflux pump inhibitor phenylalanine-arginine-beta-naphthylamide
[6] = system: Klebsiella pneumoniae; experiment: Antimicrobial activity against multidrug resistant Klebsiella pneumoniae isolate 6 by broth dilution method in presence of 26.3 mg/L efflux pump inhibitor phenylalanine-arginine-beta-naphthylamide
[7] = system: Klebsiella pneumoniae; experiment: Antimicrobial activity against multidrug resistant Klebsiella pneumoniae isolate 7 by broth dilution method in presence of 26.3 mg/L efflux pump inhibitor phenylalanine-arginine-beta-naphthylamide
[8] = system: Klebsiella pneumoniae; experiment: Antimicrobial activity against multidrug resistant Klebsiella pneumoniae isolate 9 by broth dilution method in presence of 26.3 mg/L efflux pump inhibitor phenylalanine-arginine-beta-naphthylamide
[9] = system: Klebsiella pneumoniae; experiment: Antimicrobial activity against multidrug resistant Klebsiella pneumoniae isolate 12 by broth dilution method in presence of 26.3 mg/L efflux pump inhibitor phenylalanine-arginine-beta-naphthylamide
[10] = system: Klebsiella pneumoniae; experiment: Antimicrobial activity against multidrug resistant Klebsiella pneumoniae isolate 14 by broth dilution method in presence of 26.3 mg/L efflux pump inhibitor phenylalanine-arginine-beta-naphthylamide
[11] = system: Klebsiella pneumoniae; experiment: Antimicrobial activity against multidrug resistant Klebsiella pneumoniae isolate 16 by broth dilution method in presence of 26.3 mg/L efflux pump inhibitor phenylalanine-arginine-beta-naphthylamide
[12] = system: Klebsiella aerogenes; experiment: Antimicrobial activity against multidrug resistant Enterobacter aerogenes ATCC 15038 by broth dilution method in presence of 26.3 mg/L efflux pump inhibitor phenylalanine-arginine-beta-naphthylamide
[13] = system: Klebsiella aerogenes; experiment: Antimicrobial activity against multidrug resistant Enterobacter aerogenes isolate 1 by broth dilution method
[14] = system: Klebsiella aerogenes; experiment: Antimicrobial activity against multidrug resistant Enterobacter aerogenes isolate 2 by broth dilution method
[15] = system: Klebsiella aerogenes; experiment: Antimicrobial activity against multidrug resistant Enterobacter aerogenes isolate 3 by broth dilution method
[16] = system: Klebsiella aerogenes; experiment: Antimicrobial activity against multidrug resistant Enterobacter aerogenes isolate 7 by broth dilution method
[17] = system: Klebsiella aerogenes; experiment: Antimicrobial activity against multidrug resistant Enterobacter aerogenes isolate 9 by broth dilution method
[18] = system: Klebsiella aerogenes; experiment: Antimicrobial activity against multidrug resistant Enterobacter aerogenes isolate 10 by broth dilution method
[19] = system: Klebsiella aerogenes; experiment: Antimicrobial activity against multidrug resistant Enterobacter aerogenes isolate 13 by broth dilution method
[20] = system: Klebsiella aerogenes; experiment: Antimicrobial activity against multidrug resistant Enterobacter aerogenes isolate 14 by broth dilution method
[21] = system: Klebsiella aerogenes; experiment: Antimicrobial activity against multidrug resistant Enterobacter aerogenes isolate 15 by broth dilution method
[22] = system: Klebsiella aerogenes; experiment: Antimicrobial activity against multidrug resistant Enterobacter aerogenes isolate 17 by broth dilution method
[23] = system: Klebsiella aerogenes; experiment: Antimicrobial activity against multidrug resistant Enterobacter aerogenes isolate 20 by broth dilution method
[24] = system: Klebsiella aerogenes; experiment: Antimicrobial activity against multidrug resistant Enterobacter aerogenes isolate 21 by broth dilution method
[25] = system: Klebsiella aerogenes; experiment: Antimicrobial activity against multidrug resistant Enterobacter aerogenes isolate 22 by broth dilution method
[26] = system: Klebsiella aerogenes; experiment: Antimicrobial activity against multidrug resistant Enterobacter aerogenes isolate 23 by broth dilution method
[27] = system: Klebsiella aerogenes; experiment: Antimicrobial activity against multidrug resistant Enterobacter aerogenes isolate 24 by broth dilution method
[28] = system: Klebsiella pneumoniae; experiment: Antimicrobial activity against multidrug resistant Klebsiella pneumoniae isolate 1 by broth dilution method
[29] = system: Klebsiella pneumoniae; experiment: Antimicrobial activity against multidrug resistant Klebsiella pneumoniae isolate 4 by broth dilution method
[30] = system: Klebsiella pneumoniae; experiment: Antimicrobial activity against multidrug resistant Klebsiella pneumoniae isolate 5 by broth dilution method
[31] = system: Klebsiella pneumoniae; experiment: Antimicrobial activity against multidrug resistant Klebsiella pneumoniae isolate 6 by broth dilution method
[32] = system: Klebsiella pneumoniae; experiment: Antimicrobial activity against multidrug resistant Klebsiella pneumoniae isolate 8 by broth dilution method
[33] = system: Klebsiella pneumoniae; experiment: Antimicrobial activity against multidrug resistant Klebsiella pneumoniae isolate 9 by broth dilution method
[34] = system: Klebsiella pneumoniae; experiment: Antimicrobial activity against multidrug resistant Klebsiella pneumoniae isolate 10 by broth dilution method
[35] = system: Klebsiella aerogenes; experiment: Antimicrobial activity against multidrug resistant Enterobacter aerogenes isolate 1 by broth dilution method in presence of 26.3 mg/L efflux pump inhibitor phenylalanine-arginine-beta-naphthylamide
[36] = system: Klebsiella aerogenes; experiment: Antimicrobial activity against multidrug resistant Enterobacter aerogenes isolate 5 by broth dilution method in presence of 26.3 mg/L efflux pump inhibitor phenylalanine-arginine-beta-naphthylamide
[37] = system: Klebsiella aerogenes; experiment: Antimicrobial activity against multidrug resistant Enterobacter aerogenes isolate 6 by broth dilution method in presence of 26.3 mg/L efflux pump inhibitor phenylalanine-arginine-beta-naphthylamide
[38] = system: Klebsiella aerogenes; experiment: Antimicrobial activity against multidrug resistant Enterobacter aerogenes isolate 7 by broth dilution method in presence of 26.3 mg/L efflux pump inhibitor phenylalanine-arginine-beta-naphthylamide
[39] = system: Klebsiella aerogenes; experiment: Antimicrobial activity against multidrug resistant Enterobacter aerogenes isolate 9 by broth dilution method in presence of 26.3 mg/L efflux pump inhibitor phenylalanine-arginine-beta-naphthylamide
[40] = system: Klebsiella aerogenes; experiment: Antimicrobial activity against multidrug resistant Enterobacter aerogenes isolate 13 by broth dilution method in presence of 26.3 mg/L efflux pump inhibitor phenylalanine-arginine-beta-naphthylamide
[41] = system: Klebsiella aerogenes; experiment: Antimicrobial activity against multidrug resistant Enterobacter aerogenes isolate 14 by broth dilution method in presence of 26.3 mg/L efflux pump inhibitor phenylalanine-arginine-beta-naphthylamide

Measured: MIC

C[C@@H]1CN(c2c(F)c(N)c3c(=O)c(C(=O)O)cn(C4CC4)c3c2F)C[C@H](C)N1 [SPARFLOXACIN]
16 µg/mL: [2] | [36]
4 µg/mL: [3] | [5] | [38]
128 µg/mL: [14] | [15] | [16] | [17] | [20] | [21] | [26]
256 µg/mL: [13] | [18] | [19] | [22] | [23] | [25] | [27]
512 µg/mL: [24]
0.125 µg/mL: [30] | [32]
0.25 µg/mL: [4] | [28]
8 µg/mL: [1] | [29] | [34] | [35] | [39] | [40] | [41]
≤ 0.06 µg/mL: all other assays above

CCn1cc(C(=O)O)c(=O)c2cc(F)c(N3CCNCC3)cc21 [NORFLOXACIN]
2 µg/mL: [4] | [28] | [30] | [32] | [37]
0.125 µg/mL: [12]
0.25 µg/mL: [6] | [7] | [9] | [10]
≤ 0.06 µg/mL: [8]
1 µg/mL: [31] | [33]
128 µg/mL: [1] | [2] | [5] | [17] | [29] | [34] | [39]
256 µg/mL: [3] | [13] | [14] | [15] | [16] | [18] | [25] | [35] | [38]
> 512 µg/mL: [22]
0.5 µg/mL: [11]
512 µg/mL: all other assays above

CN(C)[C@@H]1C(O)=C(C(N)=O)C(=O)[C@@]2(O)C(O)=C3C(=O)c4c(O)cccc4[C@@](C)(O)[C@H]3C[C@@H]12 [TETRACYCLINE]
2 µg/mL: [1] | [29] | [30] | [31] | [32] | [34]
256 µg/mL: [5] | [6] | [9] | [10]
4 µg/mL: [39]
8 µg/mL: [2] | [3] | [28] | [33] | [35] | [37] | [40]
64 µg/mL: [14] | [17] | [19] | [20] | [21] | [22] | [23] | [26] | [27]
32 µg/mL: [36]
0.5 µg/mL: [12]
16 µg/mL: [38] | [41]
128 µg/mL: all other assays above

O=C(N[C@H](CO)[C@H](O)c1ccc([N+](=O)[O-])cc1)C(Cl)Cl [CHLORAMPHENICOL]
256 µg/mL: [17]
128 µg/mL: [35] | [36] | [38]
4 µg/mL: [5] | [11] | [29] | [34] | [37]
1 µg/mL: [12]
2 µg/mL: [6] | [7] | [9] | [10]
512 µg/mL: [14] | [20] | [21] | [26] | [27]
8 µg/mL: [4] | [8] | [28]
64 µg/mL: [1] | [2] | [3] | [33] | [39] | [40] | [41]
32 µg/mL: [30] | [31] | [32]
1020 µg/mL: all other assays above
